Like-named read-outs stand apart in the source and are kept apart here.
Columns and labels:
YAP/TAZ = assay: immunoblotting / phos-tag gels of YAP/TAZ phosphorylation in cultured cell lines; assay type: cell-based, human
Procedure: Immunoblotting was performed using standard protocol. […] The phos-tag reagents were purchased from Wako Chemicals, and gels containing phos-tag were prepared according to manufacture's instructions. YAP proteins can be separated into multiple bands in the presence of phos-tag depending on differential phosphorylation levels, with phosphorylated proteins run migrate slower.
(§1) Immunoblotting was performed using standard protocol. Antibodies for pYAP (S127), YAP, TAZ (V386), pCREB, CREB, pMLC2 (S19), pMLC2 (T18/S19), MST1, MST2, and Lats1 were from Cell Signaling Technology. Lats2 antibody was from Bethyl laboratories. HA-HRP, GFP, and MLC2 antibodies were from Santa Cruz biotechnology. Tubulin, HSP90 and Flag-HRP were purchased from Sigma Aldrich. PKA antibody was obtained from BD biosciences. GAPDH antibody was a gift from Dr. Yan Luo. Yki antibody was a gift from Dr. Kenneth Irvine. The phos-tag reagents were purchased from Wako Chemicals, and gels containing phos-tag and MnC12 were prepared according to manufacturer's instructions. YAP proteins can be separated into multiple bands on phos-tag gels, with the phosphorylated form of YAP proteins migrating at a slower speed.

YAP [1] = assay: immunofluorescence staining of YAP subcellular localization; assay type: cell-based, human
Procedure: HEK293A or MCF10A cells were seeded on coverslips. After treatment, cells were fixed with 4% paraformaldehyde-PBS for 15 min and permeabilized with 0.1% Triton X-100 in TBS. After blocking in 3% FBS in PBS for 30 min, cells were incubated with primary antibodies overnight at 4° C. After three washes with PBS, cells were incubated with Alexa Fluor 488- or 555-conjugated secondary antibodies (Invitrogen, 1:1000 dilution) for 2 h at room temperature. Slides were then washed three times and mounted. Immunofluorescence was detected using Olympus confocal microscopy. Primary antibodies used were: YAP (H-125) and YAP (63.7) from Santa Cruz, HA from Covance, β-catenin from BD biosciences. Phalloidin alexa 488 was used to stain actin filaments. For paraffin-embedded tissues from control or LPA receptor transgenic mammary glands, 5 μm sections were prepared and subjected for immunostaining Following deparaffinization and hydration, slides were heated in sub-boiling buffer (10 mM sodium citrate, pH 6.0) for 15 min for antigen retrieval. TAZ antibody (H-70) from Santa Cruz was used to as primary antibody.

Lats1 [2] = assay: Lats1 immunoprecipitation kinase assay with GST-YAP substrate; assay type: cell-based, human
Procedure: Cells were lysed using mild lysis buffer (50 mM HEPES at pH 7.5, 150 mM NaCl, 1 mM EDTA, 1% NP-40, 10 mM pyrophosphate, 10 mM glycerophosphate, 50 mM NaF, 1.5 mM Na3VO4, protease inhibitor cocktail [Roche], 1 mM PMSF). Cell lysates were cleared and used for immunoprecipitation. Lats1 antibody (Cell Signaling Technology) was mixed with cell lysates for 1 hr at 4° C., and then protein A agarose beads were added in for 1 hr. After four washes with lysis buffer, beads were washed once with wash buffer (40 mM HEPES, 200 mM NaCl) and once with kinase assay buffer (30 mM HEPES, 50 mM potassium acetate, 5 mM MgCl2). The immunoprecipitated Lats1 was then subjected to a kinase assay in the presence of 500 μM cold ATP, 10 μCi [γ-32P] ATP, and 1 μg of GST-YAP expressed and purified from Escherichia coli as substrate. The reaction mixtures were incubated for 30 min at 30° C., terminated with SDS sample buffer, and subjected to SDS-PAGE and immunoblotting.

CREB = CREB phosphorylation by immunoblotting; assay type: cell-based, human
Procedure: (§2) Immunoblotting was performed using standard protocol. Antibodies for pYAP (S127), pYAP(S381/384), pMST1/2, TAZ, pERK, ERK1/2, Lats1, MST1, pAKT (S473), pS6K, S6K were from Cell Signaling, antibodies for YAP (H-125), CTGF, Cyr61, Gq/11, G13 and 14-3-3θ were from Santa Cruz, TEAD1 antibody was from BD biosciences, pTAZ (S89) antibody was in-house raised, GAPDH antibody was a gift from Dr. Yan Luo. The phos-tag reagents were purchased from Wako Chemicals, and gels containing phos-tag were prepared according to manufacture's instructions. YAP proteins can be separated into multiple bands in the presence of phos-tag depending on differential phosphorylation levels, with phosphorylated proteins run migrate slower.
as §1, with “YAP proteins can be separated into multiple bands on phos-tag gels, with the phosphorylated form of YAP proteins migrating at a slower speed.” left out

YAP [3] = conditions: mouse, in vivo, ip
Procedure: A protocol for epinephrine intraperitoneal (IP) injection in mice was approved by UCSD Institutional Animal Care and Use Committee. Fed male mice at 12 weeks of age were anesthetized. Control animals received an IP injection of propranolol (4 mg/100 g body weight) for 15 min. The test animals IP injected with epinephrine (75 μg/100 g body weight) for 15 min. […] The mice were sacrificed rapidly by cervical dislocation and the heart was harvested and immediately frozen in liquid nitrogen. Samples were stored at −80° C. until use. Frozen tissues were pulverized in liquid nitrogen. All of the subsequent steps were performed at 4° C. Powdered tissue samples were homogenized in 10 volumes (weight/volume) of buffer containing 50 mM Tris-HCl pH 7.6, 10 mM EDTA, 2 mM EGTA, 100 mM NaF, Protease inhibitor cocktail (1 mM Pefabloc, 1 mM benzamidine HCl, 1 μM leupeptin, and 1 μM E64), 1 mM PMSF, 0.2% Tritonx 100, 1 mM Na3VO4, 20 mM beta-glycerophosphate, 1 mM sodium pyrophosphate, and 50 nM calyculin A, using a tissue tearor. Homogenates were then centrifuged at 3,800 g for 10 min twice, and approximately 10 μg of protein, determined by Bradford, of the resultant supernatants were used for Western blot analysis.

YAP [4] = assay type: cell-based, human
YAP mRNA = YAP mRNA level by RT-PCR; assay type: cell-based, human; conditions: BOCs 293 cells; 3 μM; 12 and 24 hr
YAP [5] = assay: YAP ubiquitination (YAP immunoprecipitation, ubiquitin Western blot); assay type: cell-based, human; conditions: SF268 glioblastoma cells
M14 cells = assay: wound healing assay; assay type: cell-based, human; conditions: M14 melanoma; 24 hr scratch assay
Procedure: Control and […] treated cells were plated on fibronectin ([…]) coated 6 well plates in complete growth media. After overnight culture, wounds were made by manual scraping of the cell monolayer with a pipet tip. The dishes were washed, replenished with media in the presence or absence of […], and photographed under phase contrast microscope. They were then placed in the tissue culture incubator, and the matched wound regions were photographed every 6 hrs. Migration rate is quantified by traveling distance of leading cellular edge normalized to initial gap distance.

M14 = assay: transwell cell migration assay, M14; assay type: cell-based, human; conditions: 1, 2 and 3 μM C108
Procedure: Cell migration assay was performed using BD Falcon™ Cell culture inserts for 24-well plates with 22.0 μm pores filter, and the filter was pre-coated with […] Fibronectin. […] After 24 h, cells were fixed using 4% paraformaldehyde and stained using 0.05% crystal violet. Cells in upper chamber were carefully removed, and cells migrated through the filter were assessed by photography. For quantification, crystal violet was extracted and the absorbance at 560 nm was measured.

SK-Mel-28 melanoma = assay: cell migration assay, SK-Mel-28; assay type: cell-based, human
Procedure: (§3) Cell migration assay was performed using BD Falcon™ Cell culture inserts for 24-well plates with 22.0 μm pores filter, and the filter was pre-coated with […] Fibronectin. Cancer cells were serum-starved for 24 h and then seeded into the upper chamber of the insert in serum-free media, and lower chamber was filled with media containing 20% FBS with or without 2 μM C108. After 24 h, cells were fixed using 4% paraformaldehyde and stained using 0.05% crystal violet. Cells in upper chamber were carefully removed, and cells migrated through the filter were assessed by photography. For quantification, crystal violet was extracted and the absorbance at 560 nm was measured.

EKVX adenocarcinoma = assay: cell migration assay, EKVX; assay type: cell-based, human
Procedure: as §3

M14 Melanoma = assay: M14 melanoma cell proliferation (growth curve); assay type: cell-based, human
[6] = system: EKVX adenocarcinoma xenograft; assay: EKVX adenocarcinoma xenograft in nude mice; assay type: in vivo, mouse; conditions: 100 mg/kg daily via tail-vein injection, three weeks
Procedure: (§5) Cells grown to 90% confluence were harvested by trypsinization, washed in phosphate-buffered saline (PBS), and resuspended in PBS supplemented with 50% matrigel (BD Biosciences). Cells in 200 μL per injection site were administered. Nude mice (Nu-foxn1nu, Charles Rivers Laboratories) were injected on both flanks of the dorsolateral sites subcutaneously. C108 was formulated in 10% DMSO and 40% propylene glycol then administered at a dose of 100 mg/kg daily via tail-vein injection. Control mice received vehicle alone. The average tumor diameter (two perpendicular axes of the tumor were measured) was recorded. The data are expressed in tumor volume estimated by ([width]^2×length/2). Paired, two-tailed Student's t-test was performed to access the statistical significance.
In order to investigate the physiological impact of C108 on implanted tumor cell growth, in vivo xenograft models using M14 melanoma and EKVX adenocarcinoma in immune compromised mice were examined. Cancer cells mixed with 50% matrigel were injected subcutaneously, palpable tumors with approximately 5 mm in diameter across all injection sites were observed within 3 weeks. […] During the treatment period, tumor growth was monitored and final tumor weights were measured.

M14 melanoma xenograft = M14 melanoma xenograft in nude mice
Procedure: as §5
In order to investigate the physiological impact of C108 on implanted tumor cell growth, in vivo xenograft models using M14 melanoma and EKVX adenocarcinoma in immune compromised mice were examined. Cancer cells mixed with 50% matrigel were injected subcutaneously, palpable tumors with approximately 5 mm in diameter across all injection sites were observed within 3 weeks. At that point, control group (6 mice) was tail-vein injected with the solvent consist of 10% DMSO and 40% propylene glycol while the treatment group (6 mice) received daily injection of C108 for three additional weeks. During the treatment period, tumor growth was monitored and final tumor weights were measured.

YAP [7] = assay: YAP immunoprecipitation with TEAD1 and 14-3-3; assay type: cell-based, human; conditions: HEK293A
Procedure: (§4) Cells were lysed using mild lysis buffer (50 mM HEPES at pH 7.5, 150 mM NaCl, 1 mM EDTA, 1% NP-40, 10 mM pyrophosphate, 10 mM glycerophosphate, 50 mM NaF, 1.5 mM Na3VO4, protease inhibitor cocktail [Roche], 1 mM PMSF). Cell lysates were centrifuged for 10 min at 4° C., and supernatants were used for immunoprecipitation. YAP (Bethyl Laboratories) antibody was mixed with the supernatant for 1 h, and protein A-agarose beads were added in for 1 h. Immunoprecipitates were washed four times with lysis buffer, and proteins were eluted with SDS-PAGE sample buffer. For kinase assay, MST1, Lats1 or HA-Lats2 was immunoprecipitated similarly using MST1, Lats1 (Cell Signaling) or HA (Covance) antibodies.

CTGF = assay: expression of YAP/TAZ target gene CTGF; assay type: cell-based, human; conditions: HEK293A
Procedure: as §2
Following various treatments, cells were washed with cold phosphate-buffered saline and subjected to RNA extraction using an RNeasy Plus mini kit (Qiagen). […] Complementary DNA was then diluted and used for quantification (with β-actin gene as a control) by real-time PCR, which was performed using KAPA SYBR FAST qPCR master mix (Kapa Biosystems) and the 7300 real-time PCR system (Applied Biosystems). […]
RNA extraction, reverse transcription and real-time PCR. […] After dilution, cDNA levels were quantified by real-time PCR using KAPA SYBR FAST qPCR master mix (Kapa Biosystems) and the 7300 real-time PCR system (Applied Biosystems). […]

HEK293A cells = assay: cell proliferation assay, HEK293A; assay type: cell-based, human; conditions: 10 μM LPA, replenished every day
Procedure: HEK293A cells (expressing control shRNA or YAP/TAZ shRNA, 2×10^5) in serum-free media were maintained in the presence or absence of 10 μM LPA for 1, 2 or 3 day. Cell numbers were determined daily using a cell counter (Bio-Rad). LPA was replenished every day.

Mst1/2 = assay: Mst kinase activity and phosphorylation in treated cells; assay type: cell-based, human
Procedure: Following immunoprecipitation, protein beads were washed once with wash buffer (40 mM HEPES, 200 mM NaCl) and once with kinase assay buffer (30 mM HEPES, 50 mM potassium acetate, 5 mM MgCl2). The immunoprecipitated Mst1 was subjected to a kinase assay in the presence of 500 μM cold ATP, 10 μCi [γ-^32P] ATP, and 1 μg of GST-Mob expressed and purified from Escherichia coli as substrate. The reaction mixtures were incubated for 30 min at 30° C., terminated with SDS sample buffer, and subjected to SDS-PAGE and autoradiography. Lats1 or HA-Lats2 kinase assays were performed similarly but using GST-YAP as substrates in the absence of [γ-^32P] ATP. The phosphorylation of GST-YAP at S127 was determined by immunoblotting using pYAP antibody.

Lats1 [8] = assay: Lats1 phosphorylation (S909, T1079) by immunoblotting; assay type: cell-based, human; conditions: HEK293A; LPA 1 μM, 1 h
Procedure: as §4
as §2, with “YAP proteins can be separated into multiple bands in the presence of phos-tag depending on differential phosphorylation levels, with phosphorylated proteins run migrate slower.” left out

## CNC[C@H](O)c1ccc(O)c(O)c1 [epinephrine]
YAP/TAZ
  YAP phosphorylation (Ser127, phos-tag), time course: transiently increased
  mutual effect of epinephrine and LPA on YAP phosphorylation: antagonized each other's effect
  phosphorylation of YAP: dose-dependent phosphorylation
YAP [1]
  YAP localization (immunofluorescence): accumulation of cytoplasmic YAP
Lats1 [2]
  Lats1 activity: increased
CREB
  phosphorylation of CREB: increased
  phosphorylation of CREB, time course: transient induction
YAP [3]
  YAP phosphorylation in heart: significantly increased

## O=S(=O)(c1ccc2c(c1)C(=NO)c1cc(S(=O)(=O)N3CCCCC3)ccc1-2)N1CCCCC1 [C108, 2,7-bis(piperidin-1-yl-sulfonyl)-9H-fluoren-9-one oxime]
YAP [4]; 10 μM C108, 12 hrs
  YAP protein in the presence of cycloheximide: rapidly diminished
YAP [4]; BOCS cells, 16 hours of treatment
  YAP protein levels: dramatic decrease
YAP [4]; BOCs 293 cells, 12 and 24 hr of drug exposure
  concentration at which endogenous YAP protein was significantly reduced: 2 to 3 µM
YAP [4]; SF268 glioma, M14 melanoma and SK-Mel-28 melanoma
  YAP protein levels: decreased
YAP mRNA
  YAP mRNA levels: no noticeable changes
YAP [5]
  endogenous YAP ubiquitination: dramatically increased
M14 cells
  cell migration in wound-healing assay: strongly inhibited
M14
  migration of M14: suppressed
SK-Mel-28 melanoma
  migration of SK-Mel-28 melanoma: suppressed
EKVX adenocarcinoma
  migration of EKVX adenocarcinoma: suppressed
M14 Melanoma
  M14 Melanoma cell proliferation: inhibitory effect
[6]
  growth of EKVX xenograft tumors: significantly inhibited
M14 melanoma xenograft; 100 mg/kg daily via tail-vein injection, three weeks
  total body weight: not affected
M14 melanoma xenograft; 100 mg/kg daily via tail-vein injection, three weeks, nude mice
  growth of M14 xenograft tumors: significantly inhibited
M14 melanoma xenograft; M14 tumors from treated mice
  apoptotic marker cleaved PARP in tumors (Western blot): dramatic increase
  level of YAP in tumor tissues (Western blot): lower level
M14 melanoma xenograft; melanoma xenografts
  Hematoxylin and Eosin stain of tumor sections: sparser and have lower nuclear to cytoplasimc ratio

## lysophosphatidic acid [LPA]
YAP/TAZ; HEK293A transfected with GFP-YAP, LPA 1 h
  phosphorylation of YAP S381/384: decreased
YAP/TAZ; HEK293A, 1 μM for indicated times
  YAP/TAZ dephosphorylation, time course: rapid YAP/TAZ dephosphorylation
YAP/TAZ; HEK293A, 100 μM lipid
  dephosphorylation of YAP/TAZ by phospholipids: strongly induced dephosphorylation
YAP/TAZ; HEK293A, 1 h
  concentration inducing complete YAP/TAZ dephosphorylation: 0.1 µM
  concentration inducing partial YAP/TAZ dephosphorylation: 0.01 µM
YAP/TAZ; HEK293A, different doses of LPA, S1P, LPC or PA for 1 h
  YAP dephosphorylation, different doses: potently induced
YAP/TAZ; serum-starved U2OS, LPA, epinephrine or both, 1 h
  mutual effect of epinephrine and LPA on YAP phosphorylation: antagonized each other's effect
YAP [1]; HEK293A and MCF10A, 1 μM, 1 h
  YAP nuclear localization: induced YAP nuclear localization
YAP [1]; MCF10A
  time after LPA withdrawal at which YAP redistributed into cytoplasm: 30 min
YAP [7]
  YAP-14-3-3 interaction: attenuated
  interaction between YAP and TEAD1: enhanced
CTGF
  expression of CTGF: induced
HEK293A cells
  cell proliferation in serum free medium: strongly induced cell proliferation
Mst1/2; HEK293A with Flag-MST2, LPA 0.2 or 1 μM, 1 h
  phosphorylation of MST2 at T180: not changed
Mst1/2; HEK293A, FBS 1% or LPA 1 μM, GST-Mob substrate
  Mst1 kinase activity: no detectable effect
Lats1 [2]; HEK293A, serum or LPA
  Lats1 kinase activity: rapidly inhibited
Lats1 [8]
  phosphorylation of Lats1 at S909 and T1079: decreased
